Source: patent US10881650B2, “Pharmaceutical compositions” (priority 2007, dated 2021)
Entries after “also recorded” stand apart in the source; their conditions may differ.

Columns and labels:
[1] = Bioavailability and metabolism of oral and percutaneous DHEA: serum steroids on 1st and 14th day
From the text: Thirty-six healthy 60-70-year-old postmenopausal women participated in the study after IRB approval and having given their written informed consent. Body weight was within ±20% of normal body weight according to Metropolitan Life Tables.
This study was a randomized open-label trial of 12 subjects per arm. After written informed consent was obtained and women were found eligible, each subject was randomized to receive DHEA by cream, gel or orally. Daily, before breakfast, for 14 days, subjects received, at the research clinic, either 4 g of 10% DHEA gel or 4 g of 10% DHEA cream applied on a total 30 cm×30 cm area of the thighs or two 50 mg capsules of DHEA orally before breakfast.
Blood sampling was performed at 08:00-09:00 h at screening and before application of DHEA, on the first day of dosing, as well as on days 2, 4, 7, 10 and 14. On the 1st and 14th days, blood samples were obtained at 0.5 h, 1 h, 1.5 h, 2 h, 3 h, 4 h, 5 h, 6 h, 7 h, 8 h, 12 h and 24 h following DHEA administration.
DHEA, DHEA-S, androst-5-ene-3β,17β-diol (5-diol), testosterone, androstenedione (4-dione), 17β-estradiol (E2), estrone (E1), estrone sulfate (E1-S), androsterone glucuronide (ADT-G), and androstane-3*,17β-diol glucuronide (3α-diol-G) were measured by gas chromatography/mass spectrometry (DHEA, 5-diol, 4-dione, testosterone, E1 and E2) using electron impact or chemical ionization and by liquid chromatography/tandem mass spectrometry using turboionspray (DHEA-S, E1-S, ADT-G and 3α-diol-G) as described (Labrie, Bélanger et al., 2006; Labrie, Bélanger, et al, 2007b and Swanson et al. 2007).
On days 1 and 14, the area under the curve of the serum concentration of each steroid was measured between 0 h and 24 h (AUC0-24 h). The areas under the curves were calculated by a linear trapezoidal method (model-independent). The relative bioavailability of the DHEA gel, DHEA cream and DHEA capsules was based on the mean difference in the log-transformed AUC values. All calculations were performed with the SAS software (SAS Institute, Cary, N.C., USA).

[2] = cited from earlier work
[3] = test system: postmenopausal women with vaginal atrophy; test: Vaginal examination: secretions, color, epithelial integrity, surface thickness (ERC-210); assay type: in vivo; details: 2, 4, 8 and 12 weeks
From the text: At the same time intervals of 2, 4, 8 and 12 weeks, the gynecologist or physician in charge of the study at each site performed a vaginal exam to evaluate the degree of severity (none, mild, moderate or severe, analyzed using values of 0, 1, 2 and 3, respectively) for the main signs of vaginal atrophy, namely vaginal secretions, vaginal color, vaginal epithelial integrity and vaginal epithelial surface thickness. […] In fact, the beneficial effects observed by the gynecologist and or physician are almost superimposable to those self-reported by women on their most bothersome symptoms.
Vaginal examination was performed at screening and then at day 1 and at 2, 4, 8 and 12 weeks. Vaginal secretions, vaginal color, vaginal epithelial integrity and vaginal epithelial surface thickness were evaluated according to the following degrees of severity: none, mild, moderate or severe.

[4] = Serum levels of DHEA and eleven metabolites after daily intravaginal DHEA suppositories (clinical trial ERC-213); assay type: in vivo, 40-75 year-old postmenopausal women; details: 0.5% DHEA intravaginal
From the text: The primary objective of that study was the evaluation of the systemic bioavailability of DHEA and its metabolites following daily intravaginal application of suppositories at four different DHEA concentrations. This study was a randomized, placebo-controlled and double-blind trial of 10-subjects per arm.

[5] = test system: endometrium; test: Endometrial biopsy histology (ERC-210); assay type: in vivo, postmenopausal women; details: 3 months of intravaginal administration
Method: Endometrial biopsy was performed at screening and at month 3 at end of study. All biopsies were examined by the same pathologist at the central laboratory (Dr. Robert Dubé, Department of cytology-pathology, Enfant-Jésus Hospital, Quebec City, Canada).

[6] = one week daily intravaginal, mass spectrometry (Labrie, Cusan et al. 2008); cited from earlier work
[7] = test system: postmenopausal women with vaginal atrophy; details: cited from earlier work
[8] = test system: endometrium; details: cited from earlier work
[9] = 24 h after 14th daily administration, oral or percutaneous
[10] = daily oral 50 mg (Arlt et al. 2001)

With `C[C@]12CC[C@H](O)CC1=CC[C@@H]1[C@@H]2CC[C@]2(C)C(=O)CC[C@@H]12` [DHEA, dehydroepiandrosterone] the “Change in serum E1, E2 or testosterone AUC0-24 h” value ([1]; 14th day compared to predosing) was “no significant change”, the “Change in serum DHEA-S” value ([1]; 14th day, application of DHEA on the skin) was “No significant change” and the “Change in serum E1-S” value [1, 9] was “did not change”. The “Change in serum levels of E1 or E2” value [1, 9] was “no significant change”, the “Change of serum ADT-G or 3α-diol-G” value ([1]; day 1, up to 24 h, 4 g of 10% DHEA on the skin) was “no significant change” and the “Change in serum ADT-G” value ([1]; day 14, application of DHEA on the skin) was “No significant change”. The “Change in serum 3α-diol-G” value ([1]; day 14, percutaneous administration) was “No significant change”, the “Higher level of transformation of DHEA into ADT-G and 3α-diol-G, oral vs percutaneous” value ([1]; female, human, serum, po) was “approximately 10 fold” and the “Transformation of DHEA into 4-dione, oral compared to percutaneous” value ([1]; female, human, serum, po) was 2.70-3.76 times. For the same compound, the “Change in serum E1-S” value ([1]; first 24 h) was “did not change significantly”, the “Effect on serum levels of E1 or E2” value ([1]; first 24 h, oral or percutaneous route) was “no statistically significant effect” and the “Serum DHEA and testosterone levels” value ([2]; 23 h after last administration, 25 mg oral 6 months) was “not changed significantly”. For the same compound, the “Effect on serum testosterone or DHT” value [2, 10] was “no significant effect”, the “Increase of DHEA and ADT-G” value [2, 10] was 80-90% and the “Androgen metabolites as % of levels found in premenopausal women” value ([2]; daily oral 100 mg (Labrie, Bélanger et al. 2007)) was 74%. For the same compound, the “Signs of vaginal atrophy at vaginal exam” value [3] was “highly statistically significant improvement of all four signs of vaginal atrophy”, the “Serum levels of active estrogens (E1, E2, E1S) and androgens (testo, DHT)” value [4] was “not significantly affected; also recorded: does not increase” and the “Effect on endometrial histology” value [5] was “no effect on endometrial histology”.

For `C[C@]12CC[C@@H]3c4ccc(O)cc4CC[C@H]3[C@@H]1CC[C@@H]2O` [E2, 17β-estradiol], the “Increase in serum E2” value [6] is given as 5 fold, the “Cases with persisting dyspareunia” value ([7]; 25 μg intravaginally, 12 months (Simunic 2003)) is given as 12.4% and the “Patients having a pH less than 5.0” value ([7]; 12 weeks intravaginal 25 μg (Bachmann 2008)) is given as 51%.

In the case of `CCCCC(=O)O[C@H]1CC[C@H]2[C@@H]3CCc4cc(O)ccc4[C@H]3CC[C@]12C` [estradiol valerate], the “Increase of Ki labeling” value ([8]; 2 mg/day, 3 months (Zang 2007)) is given as 50%.

For `CCCCCCCCCCC(=O)O[C@H]1CC[C@H]2[C@@H]3CCC4=CC(=O)CC[C@]4(C)[C@H]3CC[C@]12C` [testosterone undecanoate], the “Effect on the endometrium” value ([8]; 40 mg every second day (Zang 2007)) is given as “no effect on the endometrium”.

For `C[C@]12CC[C@H]3[C@@H](CCC4=CC(=O)CC[C@@]43C)[C@@H]1CC[C@@H]2O` [testosterone], the “Proliferation with simultaneous administration of testosterone” value ([8]; with estradiol valerate 2 mg/day (Zang 2007)) is given as 28%.
